The values that follow are results of earlier work, collected in publication PMC11003925, “Antimicrobial activity and properties of de novo design of short synthetic lipopeptides” (Folia Microbiologica, 2024).

The subject of this data set is DNA. Particulars: ref Ball et al. [2004]; cited from earlier work. An excerpt:
The majority of the known antimicrobial peptides have been isolated from natural sources. Recently genomic and proteomic methods have also been applied for peptide identification. Knowledge obtained by both classical and novel methods can be used to design the chemical synthesis of new peptide compounds with biological properties. The sequence analysis of natural antimicrobial peptides led to a template, with which it is possible to generate active AMPs (Tossi et al. [1997]; Giangaspero et al. [2001]; Tossi et al. [2000]). We designed three scrambled hexapeptides, one according to this templat ...

As for `C[C@H](CCC(=O)O)[C@H]1CC[C@H]2[C@@H]3CC[C@@H]4C[C@H](O)CC[C@]4(C)[C@H]3CC[C@]12C` [LCA, lithocholic acid], the “concentration range in which mutagenic factor” value is 200 to 400 µM.
